Measurements published in US20230263822A1, “MODULATION OF FACTOR 11 EXPRESSION” (Ionis Pharmaceuticals, Inc., priority 2008, published 2023).
pIC50: −log10 of the molar value. Strand notation (5' to 3'): a small letter for the sugar, then the base; units joined by * are phosphorothioate-linked, units joined directly phosphodiester-linked; [ ] holds rarer units or linkages, { } end groups; capitals alone tell only the bases. e = 2'-O-(2-methoxyethyl) (MOE); [5mC] = 5-methylcytosine; d = 2'-deoxy (DNA)

Columns and labels:
Format in all cases: cell-based
human Factor 11 mRNA [1] = test: Antisense inhibition of human Factor 11 in HepG2 cells by microwalk gapmers, lipofectin, 75 nM (Example 3)
In short: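 HepG2 cells (10,000/well) were transfected via lipofectin with 75 nM 20-mer MOE gapmers (phosphorothioate, 5-methyl-C) for about 24 h. Factor 11 mRNA was measured by qRT-PCR, normalized to RIBOGREEN total RNA, and given as percent inhibition versus untreated cells.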

human Factor 11 mRNA [2] = test: Dose-dependent inhibition of human Factor 11 in HepG2 cells, lipofectin 9.375-75 nM (Example 4); details: for percent inhibition of Factor 11 at 9.375 nM / percent inhibition of Factor 11 at 18.75 nM / percent inhibition of Factor 11 at 37.5 nM / percent inhibition of Factor 11 at 75 nM: relative to untreated control cells
Procedure: (§1) Cells were plated at a density of 10,000 cells per well and transfected using lipofectin reagent with 9.375 nM, 18.75 nM, 37.5 nM and 75 nM concentrations of antisense oligonucleotide, as specified in Table 9. After a treatment period of approximately 16 hours, RNA was isolated from the cells and Factor 11 mRNA levels were measured by quantitative real-time PCR. Human Factor 11 primer probe set RTS 2966 was used to measure mRNA levels. Factor 11 mRNA levels were adjusted according to total RNA content, as measured by RIBOGREEN. Results are presented as percent inhibition of Factor 11, relative to untreated control cells.

human Factor 11 mRNA [3] = test: Dose-dependent inhibition of human Factor 11 in HepG2 cells, electroporation 0.7-20 uM (Example 4); details: for percent inhibition of Factor 11 at 0.7 μM / percent inhibition of Factor 11 at 2.2 μM / percent inhibition of Factor 11 at 6.7 μM / percent inhibition of Factor 11 at 20 μM: relative to untreated control cells
Procedure: as §1, with “The gapmers were also transfected via electroporation and their dose dependent inhibition of human Factor 11 mRNA was measured. Cells” for “Cells”, “20,000” for “10,000”, “via electroporation” for “using lipofectin reagent”, “0.7 μM, 2.2 μM, 6.7 μM,” for “9.375 nM, 18.75 nM, 37.5 nM”, “20 μM” for “75 nM”, “10.” for “9.”

[4] = HepG2, lipofectin, ~24 h, gapmers targeted to nucleobases 656 to 704 of SEQ ID NO: 1
[5] = HepG2 cells, lipofectin, gapmers targeted to nucleobases 1062 to 1091 of SEQ ID NO: 1
[6] = HepG2 cells, lipofectin, gapmers targeted to nucleobases 1275 to 1318 of SEQ ID NO: 1

For “416827 (antisense eT*eA*eT*eG*e[5mC]*d[5mC]*d[5mC]*dT*dT*d[5mC]*dA*dT*dG*dT*d[5mC]*eT*eA*eG*eG*eT) [compound 416827]”, the “% inhibition” value (human Factor 11 mRNA [1]; [4]) was 93%, the pIC50 (human Factor 11 mRNA [2]) was 7.64 and the “percent inhibition of Factor 11 at 9.375 nM” value (human Factor 11 mRNA [2]) was 31%. For the same substance, the “percent inhibition of Factor 11 at 18.75 nM” value (human Factor 11 mRNA [2]) was 42%, the “percent inhibition of Factor 11 at 37.5 nM” value (human Factor 11 mRNA [2]) was 62% and the “percent inhibition of Factor 11 at 75 nM” value (human Factor 11 mRNA [2]) was 77%. The pIC50 (human Factor 11 mRNA [3]) was 5.96, the “percent inhibition of Factor 11 at 0.7 μM” value (human Factor 11 mRNA [3]) was 37% and the “percent inhibition of Factor 11 at 2.2 μM” value (human Factor 11 mRNA [3]) was 68%. The “percent inhibition of Factor 11 at 6.7 μM” value (human Factor 11 mRNA [3]) was 87% and the “percent inhibition of Factor 11 at 20 μM” value (human Factor 11 mRNA [3]) was 92%.
In the case of “416842 (antisense eT*eG*eA*eG*eA*dT*dT*d[5mC]*dT*dT*dT*dG*dG*dG*d[5mC]*e[5mC]*eA*eT*eT*e[5mC]) [compound 416842]”, the “% inhibition” value (human Factor 11 mRNA [1]; [5]) was 94%, the pIC50 (human Factor 11 mRNA [2]) was 7.51 and the “percent inhibition of Factor 11 at 9.375 nM” value (human Factor 11 mRNA [2]) was 18%. For the same substance, the “percent inhibition of Factor 11 at 18.75 nM” value (human Factor 11 mRNA [2]) was 33%, the “percent inhibition of Factor 11 at 37.5 nM” value (human Factor 11 mRNA [2]) was 62% and the “percent inhibition of Factor 11 at 75 nM” value (human Factor 11 mRNA [2]) was 71%. The pIC50 (human Factor 11 mRNA [3]) was 5.30, the “percent inhibition of Factor 11 at 0.7 μM” value (human Factor 11 mRNA [3]) was 0% and the “percent inhibition of Factor 11 at 2.2 μM” value (human Factor 11 mRNA [3]) was 10%. The “percent inhibition of Factor 11 at 6.7 μM” value (human Factor 11 mRNA [3]) was 66% and the “percent inhibition of Factor 11 at 20 μM” value (human Factor 11 mRNA [3]) was 92%.
“416878 (antisense eG*eG*eT*d[5mC]*d[5mC]*dA*d[5mC]*dA*dT*dA*dA*dA*dT*dG*dT*d[5mC]*dT*eT*eT*eG) [compound 416878]” was tested, and the “% inhibition” value (human Factor 11 mRNA [1]; [4]) was 95%, the pIC50 (human Factor 11 mRNA [2]) was 7.57 and the “percent inhibition of Factor 11 at 9.375 nM” value (human Factor 11 mRNA [2]) was 22%. The “percent inhibition of Factor 11 at 18.75 nM” value (human Factor 11 mRNA [2]) was 34%, the “percent inhibition of Factor 11 at 37.5 nM” value (human Factor 11 mRNA [2]) was 60% and the “percent inhibition of Factor 11 at 75 nM” value (human Factor 11 mRNA [2]) was 82%. For the same substance, the pIC50 (human Factor 11 mRNA [3]) was 5.37, the “percent inhibition of Factor 11 at 0.7 μM” value (human Factor 11 mRNA [3]) was 1% and the “percent inhibition of Factor 11 at 2.2 μM” value (human Factor 11 mRNA [3]) was 26%. The “percent inhibition of Factor 11 at 6.7 μM” value (human Factor 11 mRNA [3]) was 75% and the “percent inhibition of Factor 11 at 20 μM” value (human Factor 11 mRNA [3]) was 85%.
In the case of “416895 (antisense eT*eA*eT*dG*d[5mC]*d[5mC]*d[5mC]*dT*dT*d[5mC]*dA*dT*dG*dT*d[5mC]*dT*dA*eG*eG*eT) [compound 416895]”, the “% inhibition” value (human Factor 11 mRNA [1]; [4]) was 95%, the pIC50 (human Factor 11 mRNA [2]) was 7.82 and the “percent inhibition of Factor 11 at 9.375 nM” value (human Factor 11 mRNA [2]) was 39%. The “percent inhibition of Factor 11 at 18.75 nM” value (human Factor 11 mRNA [2]) was 57%, the “percent inhibition of Factor 11 at 37.5 nM” value (human Factor 11 mRNA [2]) was 66% and the “percent inhibition of Factor 11 at 75 nM” value (human Factor 11 mRNA [2]) was 71%. The pIC50 (human Factor 11 mRNA [3]) was 5.52, the “percent inhibition of Factor 11 at 0.7 μM” value (human Factor 11 mRNA [3]) was 0% and the “percent inhibition of Factor 11 at 2.2 μM” value (human Factor 11 mRNA [3]) was 62%. For the same substance, the “percent inhibition of Factor 11 at 6.7 μM” value (human Factor 11 mRNA [3]) was 70% and the “percent inhibition of Factor 11 at 20 μM” value (human Factor 11 mRNA [3]) was 91%.
“416995 (antisense eT*eT*d[5mC]*dT*dT*dT*dG*dA*dG*dA*dT*dT*d[5mC]*dT*dT*eT*eG*eG*eG*e[5mC]) [compound 416995]” was tested, and the “% inhibition” value (human Factor 11 mRNA [1]; [5]) was 64%.
For “416996 (antisense eT*eT*dT*d[5mC]*dT*dT*dT*dG*dA*dG*dA*dT*dT*d[5mC]*dT*eT*eT*eG*eG*eG) [compound 416996]”, the “% inhibition” value (human Factor 11 mRNA [1]; [5]) was 22%.
“416997 (antisense eA*e[5mC]*dA*dG*dT*dT*dT*d[5mC]*dT*dG*dG*d[5mC]*dA*dG*dG*e[5mC]*e[5mC]*eT*e[5mC]*eG) [compound 416997]” was tested, and the “% inhibition” value (human Factor 11 mRNA [1]; [6]) was 84%.
In the case of “416998 (antisense e[5mC]*eA*d[5mC]*dA*dG*dT*dT*dT*d[5mC]*dT*dG*dG*d[5mC]*dA*dG*eG*e[5mC]*e[5mC]*eT*e[5mC]) [compound 416998]”, the “% inhibition” value (human Factor 11 mRNA [1]; [6]) was 88%.
In the case of “417001 (antisense eG*eT*dG*d[5mC]*dA*d[5mC]*dA*dG*dT*dT*dT*d[5mC]*dT*dG*dG*e[5mC]*eA*eG*eG*e[5mC]) [compound 417001]”, the “% inhibition” value (human Factor 11 mRNA [1]; [6]) was 83%.
In the case of “417004 (antisense eT*eT*dG*dG*dT*dG*d[5mC]*dA*d[5mC]*dA*dG*dT*dT*dT*d[5mC]*eT*eG*eG*e[5mC]*eA) [compound 417004]”, the “% inhibition” value (human Factor 11 mRNA [1]; [6]) was 86%.
“417005 (antisense eA*eT*dT*dG*dG*dT*dG*d[5mC]*dA*d[5mC]*dA*dG*dT*dT*dT*e[5mC]*eT*eG*eG*e[5mC]) [compound 417005]” was tested, and the “% inhibition” value (human Factor 11 mRNA [1]; [6]) was 79%.
In the case of “417006 (antisense e[5mC]*eA*dT*dT*dG*dG*dT*dG*d[5mC]*dA*d[5mC]*dA*dG*dT*dT*eT*e[5mC]*eT*eG*eG) [compound 417006]”, the “% inhibition” value (human Factor 11 mRNA [1]; [6]) was 81%.
In the case of “417007 (antisense eG*e[5mC]*dA*dT*dT*dG*dG*dT*dG*d[5mC]*dA*d[5mC]*dA*dG*dT*eT*eT*e[5mC]*eT*eG) [compound 417007]”, the “% inhibition” value (human Factor 11 mRNA [1]; [6]) was 82%.
In the case of “417008 (antisense eG*eG*d[5mC]*dA*dT*dT*dG*dG*dT*dG*d[5mC]*dA*d[5mC]*dA*dG*eT*eT*eT*e[5mC]*eT) [compound 417008]”, the “% inhibition” value (human Factor 11 mRNA [1]; [6]) was 82%.
“417009 (antisense e[5mC]*eG*dG*d[5mC]*dA*dT*dT*dG*dG*dT*dG*d[5mC]*dA*d[5mC]*dA*eG*eT*eT*eT*e[5mC]) [compound 417009]” was tested, and the “% inhibition” value (human Factor 11 mRNA [1]; [6]) was 85%.
For “417010 (antisense eA*e[5mC]*dG*dG*d[5mC]*dA*dT*dT*dG*dG*dT*dG*d[5mC]*dA*d[5mC]*eA*eG*eT*eT*eT) [compound 417010]”, the “% inhibition” value (human Factor 11 mRNA [1]; [6]) was 81%.
“417011 (antisense eG*eA*d[5mC]*dG*dG*d[5mC]*dA*dT*dT*dG*dG*dT*dG*d[5mC]*dA*e[5mC]*eA*eG*eT*eT) [compound 417011]” was tested, and the “% inhibition” value (human Factor 11 mRNA [1]; [6]) was 86%.
For “417012 (antisense eG*eG*dA*d[5mC]*dG*dG*d[5mC]*dA*dT*dT*dG*dG*dT*dG*d[5mC]*eA*e[5mC]*eA*eG*eT) [compound 417012]”, the “% inhibition” value (human Factor 11 mRNA [1]; [6]) was 72%.
In the case of “417013 (antisense e[5mC]*eG*dG*dA*d[5mC]*dG*dG*d[5mC]*dA*dT*dT*dG*dG*dT*dG*e[5mC]*eA*e[5mC]*eA*eG) [compound 417013]”, the “% inhibition” value (human Factor 11 mRNA [1]; [6]) was 86%.
“417014 (antisense eG*e[5mC]*dG*dG*dA*d[5mC]*dG*dG*d[5mC]*dA*dT*dT*dG*dG*dT*eG*e[5mC]*eA*e[5mC]*eA) [compound 417014]” was tested, and the “% inhibition” value (human Factor 11 mRNA [1]; [6]) was 87%.
In the case of “417015 (antisense eA*eG*d[5mC]*dG*dG*dA*d[5mC]*dG*dG*d[5mC]*dA*dT*dT*dG*dG*eT*eG*e[5mC]*eA*e[5mC]) [compound 417015]”, the “% inhibition” value (human Factor 11 mRNA [1]; [6]) was 87%.
For “417016 (antisense e[5mC]*eA*dG*d[5mC]*dG*dG*dA*d[5mC]*dG*dG*d[5mC]*dA*dT*dT*dG*eG*eT*eG*e[5mC]*eA) [compound 417016]”, the “% inhibition” value (human Factor 11 mRNA [1]; [6]) was 85%.
“417017 (antisense eG*e[5mC]*dA*dG*d[5mC]*dG*dG*dA*d[5mC]*dG*dG*d[5mC]*dA*dT*dT*eG*eG*eT*eG*e[5mC]) [compound 417017]” was tested, and the “% inhibition” value (human Factor 11 mRNA [1]; [6]) was 82%.
In the case of “417018 (antisense eG*eG*d[5mC]*dA*dG*d[5mC]*dG*dG*dA*d[5mC]*dG*dG*d[5mC]*dA*dT*eT*eG*eG*eT*eG) [compound 417018]”, the “% inhibition” value (human Factor 11 mRNA [1]; [6]) was 82%.
With “417019 (antisense eT*eG*dG*d[5mC]*dA*dG*d[5mC]*dG*dG*dA*d[5mC]*dG*dG*d[5mC]*dA*eT*eT*eG*eG*eT) [compound 417019]” the “% inhibition” value (human Factor 11 mRNA [1]; [6]) was 84%.
“417020 (antisense e[5mC]*eT*dG*dG*d[5mC]*dA*dG*d[5mC]*dG*dG*dA*d[5mC]*dG*dG*d[5mC]*eA*eT*eT*eG*eG) [compound 417020]” was tested, and the “% inhibition” value (human Factor 11 mRNA [1]; [6]) was 84%.
“417021 (antisense eA*e[5mC]*dT*dG*dG*d[5mC]*dA*dG*d[5mC]*dG*dG*dA*d[5mC]*dG*dG*e[5mC]*eA*eT*eT*eG) [compound 417021]” was tested, and the “% inhibition” value (human Factor 11 mRNA [1]; [6]) was 74%.
